Entries after “also recorded” stand apart in the source; their conditions may differ. Each block holds one molecule with its values, some of them ahead of it.
Legend:
5-LO = 5-LO (Solanum tuberosum, UniProt P37831); assay: Effect on 5-LO catalysed oxidation of arachidonic acid; type: biochemical; settings: preliminary experiment, purified enzyme, result in words
Description: Based on this consideration, 5-LO, 12-LO and 15-LO catalysed oxidation of the nitro compounds (4a, 4b, 6a, 6b, 8a and 8b) was investigated. Each of the nitro compounds was treated with 15-LO in pH 9.0 buffer (or 5-LO in pH 6.3 buffer and 12-LO in pH 7.4 buffer), and the formation of 15-hydroperoxy derivatives (or 5-hydroperoxy or 12-hydroperoxy derivatives) over time was monitored by LW spectroscopy at 234 nm. […]

DU145 cells = assay: DU145 tumour cell survival (MTS cell proliferation assay); type: cell-based, human; settings: for Anti tumour effect on DU145 tumour cells: various concentrations and times (FIGS. 1, 2); for DU145 cell survival, screening test: 20 μM fatty acid, 24 hrs, MTS (FIG. 4); for DU145 cell proliferation: 24 h, MTS assay (FIG. 5A)
Description: Lx compounds were tested for activity against two androgen insensitive prostate cancer tumour cell lines, DU145(liver metastases) and PC3(brain metastases). […] Survival was measured using the MTS cell proliferation assay.
Various concentrations for varying amounts of time of Lx compounds were added to either DU145 or PC3 tumour cells in culture. Viability/death of tumour cells was measured by a standard colourimetric assay. […] It is also evident from the results (FIG. 2) that the saturated nitro compound Lx1 (19:0-NO2) is not active and neither is MP2 (β-thia 23:0), a saturated […] fatty acid. […] In a further screening test, the human prostate cell line, DU145 cells (liver metastases), was treated for 24 hrs with 20 μM Fatty Acid and cell survival was measured using the MTS cell proliferation assay. This assay uses colourimetric measurement of substrate conversion to formazan which occurs only in the presence of NADH in a metabolically active cell. There was varied anti-tumour activity amongst the different types of PUFA.
(§1) DU145 cells were treated with PUFA and incubated for 24 h (for the proliferation assay), 4 h (for the caspase assay) and for 18 h (for PARP cleavage).
(§2) Proliferation was quantitated by MTS assay. Caspases 3 and 7 were assayed by a fluorometric assay using a […] substrate. PARP cleavage was measured by Western blots using an anti PARP antibody.

12-LO = molecular target: T1, 12-LO (Sus scrofa, UniProt P16469); assay: Effect on 12-LO catalysed oxidation of arachidonic acid; type: biochemical, porcine; settings: preliminary experiment, result in words
T1 construct: purchased Cayman Chemical Company
T1 sequence (P16469 1-663): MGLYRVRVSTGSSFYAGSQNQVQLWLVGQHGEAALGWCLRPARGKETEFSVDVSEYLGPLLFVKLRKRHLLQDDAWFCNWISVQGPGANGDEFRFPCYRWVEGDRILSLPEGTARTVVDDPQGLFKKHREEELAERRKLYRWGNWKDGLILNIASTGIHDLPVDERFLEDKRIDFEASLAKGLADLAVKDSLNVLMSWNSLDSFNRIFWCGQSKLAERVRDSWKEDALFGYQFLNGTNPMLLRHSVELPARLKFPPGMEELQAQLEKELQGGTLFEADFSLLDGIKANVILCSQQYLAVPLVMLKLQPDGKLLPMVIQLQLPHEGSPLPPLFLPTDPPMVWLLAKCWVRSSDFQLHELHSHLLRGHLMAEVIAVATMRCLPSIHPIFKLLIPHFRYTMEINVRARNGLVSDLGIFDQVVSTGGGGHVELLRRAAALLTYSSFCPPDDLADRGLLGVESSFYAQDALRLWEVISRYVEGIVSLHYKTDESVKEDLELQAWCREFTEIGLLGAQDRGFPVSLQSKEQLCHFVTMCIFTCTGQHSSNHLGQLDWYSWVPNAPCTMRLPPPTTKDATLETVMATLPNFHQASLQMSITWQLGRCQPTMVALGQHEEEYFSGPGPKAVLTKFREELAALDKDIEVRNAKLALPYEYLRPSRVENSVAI
Description: Based on this consideration, 5-LO, 12-LO and 15-LO catalysed oxidation of the nitro compounds (4a, 4b, 6a, 6b, 8a and 8b) was investigated. Each of the nitro compounds was treated with 15-LO in pH 9.0 buffer (or 5-LO in pH 6.3 buffer and 12-LO in pH 7.4 buffer), and the formation of 15-hydroperoxy derivatives (or 5-hydroperoxy or 12-hydroperoxy derivatives) over time was monitored by LW spectroscopy at 234 nm.
A number of Lx compounds were tested for anti 5-LOX and 12-LOX activities in the human breast cancer cell line, MCF-7. […] The ability of 5-LOX and 12-LOX to produce oxidated products of 20:4n-6 with a different absorption wavelength in the presence of nitroso-PUFA was examined and is shown in the progress curves in FIG. 6. […] Within cells, activation of 5-LOX is facilitated by 5-LOX activating protein (FLAP). Thus, in intact cells, Lx7 and Lx9 may be able to activate 5-LOX at lower concentrations than those required in the purified enzyme system shown in FIG. 6. […] By being able to activate 5-LOX and suppress 12-LOX, these compounds have the desired characteristics of anti-breast cancer agents as discussed previously.
15-LO was obtained from Sigma Chemical Company, and 12-LO from Cayman Chemical Company. Arachidonic acid 1, linolenyl alcohol 57a, gamma linolenyl alcohol 5b, arachidonyl alcohol 57c and docosahexaenyl alcohol 57d were purchased from Nu-Chek Prep. Inc. Elysian, Minn., USA. Other chemicals were commercially available from Aldrich Chemical Company.

15-LO = molecular target: T2, 15-LO (Glycine max, UniProt P08170); assay: Effect on 15-LO catalysed oxidation of arachidonic acid; type: biochemical, soybean; settings: preliminary experiment, result in words
T2 construct: purchased Sigma Chemical Company
T2 sequence (P08170 1-839): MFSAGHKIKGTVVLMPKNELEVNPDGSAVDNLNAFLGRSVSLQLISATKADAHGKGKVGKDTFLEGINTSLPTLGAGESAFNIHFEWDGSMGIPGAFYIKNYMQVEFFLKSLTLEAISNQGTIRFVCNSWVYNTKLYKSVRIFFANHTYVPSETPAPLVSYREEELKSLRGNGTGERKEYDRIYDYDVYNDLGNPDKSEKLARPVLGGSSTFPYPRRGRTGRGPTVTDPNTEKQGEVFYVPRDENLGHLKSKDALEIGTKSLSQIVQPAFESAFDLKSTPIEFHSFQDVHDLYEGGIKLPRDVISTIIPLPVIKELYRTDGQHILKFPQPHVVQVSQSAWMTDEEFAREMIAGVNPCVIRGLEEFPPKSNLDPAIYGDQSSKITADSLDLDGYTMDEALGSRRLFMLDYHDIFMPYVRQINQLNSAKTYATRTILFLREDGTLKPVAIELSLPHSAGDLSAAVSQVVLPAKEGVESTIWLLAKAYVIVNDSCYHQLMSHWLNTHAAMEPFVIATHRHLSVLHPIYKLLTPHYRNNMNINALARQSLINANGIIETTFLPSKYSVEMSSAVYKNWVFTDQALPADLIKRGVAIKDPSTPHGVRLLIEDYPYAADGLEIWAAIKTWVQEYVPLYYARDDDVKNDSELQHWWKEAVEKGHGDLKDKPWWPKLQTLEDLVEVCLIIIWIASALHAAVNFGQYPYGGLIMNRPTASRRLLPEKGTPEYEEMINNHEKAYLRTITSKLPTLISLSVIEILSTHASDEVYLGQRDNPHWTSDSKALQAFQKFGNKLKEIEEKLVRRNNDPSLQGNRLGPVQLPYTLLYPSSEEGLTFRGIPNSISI

MCF-7 cells = assay: Killing of MCF-7 breast cancer cells in vitro; type: cell-based, human; settings: in vitro (FIG. 7); compared with 20:4n-6 toxicity
Text: While interference with 5-LOX or 12-LOX activity individually impacts on growth rates of human breast cancer MCF-7 cells^(55,56), the simultaneous modification of the activities of both enzymes at once may cause death. […] Lx4, a nitroso-compound with the same number of carbon atoms and degree of unsaturation as Lx9 but lacking a COOH group, was ineffective (FIG. 7).

Caspases 3 and 7 = assay: Caspase 3 and 7 fluorometric assay in DU145 cells; type: cell-based, human; settings: for Activation of caspases: DU145 cells, 4 h (FIG. 5B); for Induction of apoptosis in DU145 cells: concluded from caspase activation and PARP cleavage
Description: as §1, §2

PARP = PARP cleavage by Western blot in DU145 cells; type: cell-based, human; settings: 18 h, anti PARP antibody (FIG. 5C)
Description: as §1, §2

5-LO, sequence (P37831 whole entry): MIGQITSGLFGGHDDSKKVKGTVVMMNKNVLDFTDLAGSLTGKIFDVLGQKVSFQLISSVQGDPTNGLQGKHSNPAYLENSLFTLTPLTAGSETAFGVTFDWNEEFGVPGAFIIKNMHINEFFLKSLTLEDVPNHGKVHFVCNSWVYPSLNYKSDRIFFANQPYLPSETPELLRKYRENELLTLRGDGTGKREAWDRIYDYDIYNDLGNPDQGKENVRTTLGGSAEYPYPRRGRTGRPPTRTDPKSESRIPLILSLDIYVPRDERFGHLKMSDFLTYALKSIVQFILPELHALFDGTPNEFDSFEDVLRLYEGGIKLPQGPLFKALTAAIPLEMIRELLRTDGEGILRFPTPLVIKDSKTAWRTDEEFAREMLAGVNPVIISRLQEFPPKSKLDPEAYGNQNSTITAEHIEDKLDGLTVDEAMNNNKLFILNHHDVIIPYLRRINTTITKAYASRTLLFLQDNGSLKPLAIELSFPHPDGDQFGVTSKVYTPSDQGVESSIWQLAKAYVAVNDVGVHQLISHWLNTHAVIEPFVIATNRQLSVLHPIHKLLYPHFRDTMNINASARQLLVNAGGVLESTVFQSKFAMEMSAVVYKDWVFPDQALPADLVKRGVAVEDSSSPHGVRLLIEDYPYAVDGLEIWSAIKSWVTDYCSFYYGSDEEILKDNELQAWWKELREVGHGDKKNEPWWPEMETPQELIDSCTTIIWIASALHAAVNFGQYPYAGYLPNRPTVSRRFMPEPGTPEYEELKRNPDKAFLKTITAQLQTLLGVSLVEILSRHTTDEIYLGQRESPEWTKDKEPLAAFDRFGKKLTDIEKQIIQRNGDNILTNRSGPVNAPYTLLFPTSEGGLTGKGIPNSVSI

melting point: 166 to 167 °C
Structure (SMILES): CCCCCCCCCCCCCC[S+]([O-])CCC(=O)O (stereo not drawn) [Compound 113, 3-(tetradecylsulfinyl) propionic acid]

Structure (SMILES): CCCCCCCCCCCCCCCCCC[N+](=O)[O-] [Lx1, 1-Nitrooctadecane]
Effect on 5-LO catalysed oxidation of AA (5-LO): Nil | Anti tumour effect on DU145 tumour cells (DU145 cells): not active | Effect on 12-LO catalysed oxidation of AA (12-LO): Nil | Effect on 15-LO catalysed oxidation of AA (15-LO): Nil

Effect on 15-LO catalysed oxidation of AA (15-LO): Nil
Structure (SMILES): CC/C=C\C/C=C\C/C=C\CCCCCCCC[N+](=O)[O-] [Lx2, (z,z,z)-1-Nitro-9,12,15-octadecatriene]

Effect on 15-LO catalysed oxidation of AA (15-LO): Nil
Structure (SMILES): CCCCC/C=C\C/C=C\C/C=C\CCCCC[N+](=O)[O-] [Lx3, (z,z,z)-1-Nitro-6,9,12-octadecatriene]

Structure (SMILES): CCCCC/C=C\C/C=C\C/C=C\C/C=C\CCCC[N+](=O)[O-] [Lx4, (all-z)-1-Nitro-5,8,11,14-eicosatetraene]
Killing of MCF-7 tumour cells (MCF-7 cells): ineffective | Effect on 5-LO catalysed oxidation of AA (5-LO): Nil | Effect on 12-LO catalysed oxidation of AA (12-LO): Nil | Effect on 15-LO catalysed oxidation of AA (15-LO): Nil

Effect on 15-LO catalysed oxidation of AA (15-LO): Nil
Structure (SMILES): CC/C=C\C/C=C\C/C=C\C/C=C\C/C=C\C/C=C\CCC[N+](=O)[O-] [Lx5, (all-z)-1-Nitro-4,7,10,13,16,19-docosahexaene]

Structure (SMILES): CCCCCCCCCCCCCCCCCC(CCC(=O)O)[N+](=O)[O-] (stereo not drawn) [Lx6, 4-Nitrohenicosanoic acid]
Effect on 5-LO catalysed oxidation of AA (5-LO): Inhibitory | Effect on 5-LO catalysed oxidation of AA (5-LO; listed as 4-nitrohenicosanoic acid): selective inhibitors | Effect on 5-LO catalysed oxidation of AA (5-LO; listed as 6a): inhibiting 5-LO | Killing of DU145 tumour cells (DU145 cells; 15 μM, after 24 hours of culture (FIG. 2)): killing of all the tumour cell population | Anti tumour effect on DU145 tumour cells (DU145 cells): concentration and time related effects | Effect on 12-LO catalysed oxidation of AA (12-LO): Activatory | Effect on 15-LO catalysed oxidation of AA (15-LO): Activatory | Effect on 15-LO catalysed oxidation of AA (15-LO; listed as 6a): not 15-LO

Structure (SMILES): CCCCC/C=C\C/C=C\C/C=C\C/C=C\CCCC(CCC(=O)O)(CCC(=O)O)[N+](=O)[O-] [Lx9, 3-[(all-Z)-Nonadeca-4,7,10,13-tetraenyl]-3-nitropentane-1,5-dicarboxylic acid]
Killing of MCF-7 tumour cells (MCF-7 cells): kill these tumour cells | Effect on 5-LO catalysed oxidation of AA (5-LO): can activate 5-LOX; also recorded: Activatory | Effect on 12-LO catalysed oxidation of AA (12-LO): direct, potent and rapid inhibitor of 12-LOX; also recorded: Inhibitory | Effect on 12-LO catalysed oxidation of AA (12-LO; listed as 3-(all-Z)-nonadeca-4,7,10,13-tetraenyl]-3-nitropentane-1,5-dicarboxylic acid): selective inhibitors | Effect on 12-LO catalysed oxidation of AA (12-LO; listed as 8b): significant inhibitory effect | Effect on 15-LO catalysed oxidation of AA (15-LO): Nil

Structure (SMILES): CCCCC/C=C\C/C=C\C/C=C\C/C=C\CCCCOCC(=O)O [MP3]
DU145 cell survival, screening test (DU145 cells): highly active | DU145 cell proliferation (DU145 cells): marked inhibition of cell proliferation | Activation of caspases (Caspases 3 and 7): activation of caspases | Induction of apoptosis in DU145 cells (Caspases 3 and 7): induce apoptosis | PARP cleavage (PARP): cleavage of PARP

Structure (SMILES): CC/C=C\C/C=C\C/C=C\CCCCCCCCOCC(=O)O [MP5, (Z,Z,Z)-(octadeca-9,12,15-trienyloxy) acetic acid]
DU145 cell proliferation (DU145 cells): marked inhibition of cell proliferation | Activation of caspases (Caspases 3 and 7): activation of caspases | Induction of apoptosis in DU145 cells (Caspases 3 and 7): induce apoptosis | PARP cleavage (PARP): cleavage of PARP

Structure (SMILES): CCC=CCC=CCC=CCC=CCC=CCC=CCCCOCC(=O)O [MP6]
DU145 cell survival, screening test (DU145 cells): most active

Structure (SMILES): CCCCC/C=C\C/C=C\C/C=C\C/C=C\CCCCSCC(=O)O [MP8, (all-Z)-(eicosa-5,8,11,14-tetraenylthio) acetic acid]
DU145 cell survival, screening test (DU145 cells): highly active

Structure (SMILES): CCCCC/C=C\C/C=C\C/C=C\CCCCCSCC(=O)O [MP9]
DU145 cell survival, screening test (DU145 cells): most active

Structure (SMILES): CCC=CCC=CCC=CCCCCCCCCSCC(=O)O [MP10]
DU145 cell survival, screening test (DU145 cells): most active

Structure (SMILES): CCCCC/C=C\C/C=C\C/C=C\CCCCCSCCC(=O)O [MP12]
DU145 cell survival, screening test (DU145 cells): most active

Structure (SMILES): CC/C=C\C/C=C\C/C=C\CCCCCCCCSCCC(=O)O [MP13, 3-[(Z,Z,Z)-(octadeca-9,12,15-trienylthio)]propionic acid]
DU145 cell survival, screening test (DU145 cells): highly active

Structure (SMILES): CC/C=C\C/C=C\C/C=C\C/C=C\C/C=C\C/C=C\CCC(=O)NCC(=O)O [PTS]
DU145 cell survival, screening test (DU145 cells): some activity

Reference: US20050222253A1, “Anti-cancer nitro- and thia-fatty acids” (priority 1999, published 2005)
